Here are results for one compound from PMC5149032, “Secondary Metabolites and Biological Activities of Talaromyces sp. LGT-2, an Endophytic Fungus from Tripterygium Wilfordii” (Iranian Journal of Pharmaceutical Research : IJPR, 2016).

In the assay the target is monoamine oxidase (MAO), isoform not stated. The assay is described as follows: MAO inhibition assay (procedure cited to earlier paper; enzyme source not given). Format: biochemical.

For orientation: IC50 means the concentration at which inhibition is half-maximal. For the compound `O=CN/C=C\c1ccc(O)cc1` [compound 11, (Z)-N-(4-hydroxystyryl)formamide], the IC50 amounted to 61 µM.
